Results as given in patent US6468987B1, “Nutritional product for a person having ulcerative colitis” (Abbott Laboratories, priority 1994, dated 2002).
Marks after values point to notes of the source that are not given here.

Assays:
[1] = test system: active ulcerative colitis; details: dietary supplementation; cited from earlier work
[2] = test system: distal colitis induced by peptidoglycan/polysaccharide (PG/PS); assay: PG/PS-induced acute and chronic distal colitis in rats; type: in vivo, Female Lewis rats
Experimental: For these reasons, a model of acute and chronic distal colitis in rats was developed based upon a previously published method in which purified bacterial cell wall polymers (derived from Group A streptococci) are injected intramurally into the distal colon of genetically-susceptible rats. Sartor et al., “Granulomatus Entercolitis Induced by Purified Bacterial Cell Wall Fragments”, GASTROENTEROLOGY, Vol. 89, pages 587-595 (1985). This model produces an acute and chronic inflammation characterized by the infiltration of large numbers of inflammatory cells, enhanced mucosal permeability, interstitial fibrosis, and mucosal thickening as well as the extraintestinal manifestations of arthritis, hepatic and splenic granulomas. Unlike most models of colitis, the inflammation induced in this model promoting mucosal and submucosal injury rather than the injury causing the inflammation.
In Experiment 2 the objectives were: (a) to determine whether this model of colitis responds to sulfasalazine (SAZ) and (b) to assess the effects of specially formulated enteral diets on the injury and inflammation observed in the colon, liver and spleen.
Female Lewis rats (150-175 g) were maintained in a controlled temperature and light-dark cycle (12 hours:12 hours) and housed in wire-mesh bottomed cages and given water and standard laboratory rat chow ad libitum. A total of 48 rats were divided into 6 groups of 8 rats each consisting of a sham (rats receiving Diet #1 {base diet} with no peptidoglycan/polysaccharide {PG/PS} injection) control group, a chow group and 4 groups of rats placed on 4 different polymeric diets (Table 6). Rats received either chow or polymeric diets (320 kcals/kg/day or 60 mL of liquid diet/day) for 7 days preceding induction of colitis. Distal colitis was induced by a modification of the method of Sartor et al in which multiple sites (8-9) along the distal colon were injected intramurally with 60 ul/site to deliver a dose of peptidoglycan/polysaccharide (PG/PS) of 12.5 ug/g body weight. The albumin (sham) control group received the same number of injections of human serum albumin into the distal colon.
Total dietary intake and body weights of the control and liquid diet groups were recorded for each 24 hour period during the course of the 4 week experiment (1 week prior to the induction of colitis and 3 weeks following PG/PS or albumin injection).
To assess the effects of SAZ in this model, female Lewis rats were orally administered SAZ immediately following the induction of colitis. Rats were given chow ad libitum for the duration of the four week study period. Similar measurements were assessed as described below.
All rats receiving nutritional therapy or SAZ were euthanized with an overdose of pentobarbital and the distal colon and cecum were excised and opened longitudinally. The length and weight of the perfused segment were recorded and the tissue divided longitudinally into three strips for wet-to-dry ratios, histology and myeloperoxidase (MPO) determinations. Colonic MPO activity was determined in which 3,3′ 5,5′ tetramethylbenzidine was used as the electron donating substrate and hexadecyltrimethylammonium hydroxide was used as the detergent. Spleen and liver weights were recorded. Circulating levels of nitrate and nitrite were also quantified using the Griess reagent and used as indices of immune system activation (i.e. activation of the reticuloendothelial system {nitric oxide synthase}). The studies were analyzed as a completely randomized design. Treatment differences were separated using an F-protected least significant difference (LSD) method. In both studies additional chow fed control animals that were treated under laboratory conditions described above were incorporated in the statistical analysis.

[3] = SAZ orally from induction of colitis, chow fed PG/PS rats, least square means
[4] = oral SAZ vs PG/PS treated animals and sham control
[5] = oral SAZ vs chow fed group receiving PG/PS

Compound	eicosanoid levels from rectal dialysate fluid [1]	COLON WT [2, 3]	Liver wt [2, 3]	MPO ACTIVITY [2, 3]	Spleen wt [2, 3]	liver weight, in words [2, 4]	spleen weight, in words [2, 4]	colon weight, in words [2, 5]	increases in MPO activity, in words [2, 5]	histological inspection of the SAZ-treated tissue ([2]; oral SAZ, PG/PS colitis)
vitamin E	not to promote changes									
O=C(O)c1cc(/N=N/c2ccc(S(=O)(=O)Nc3ccccn3)cc2)ccc1O [SAZ, sulfasalazine]		.021 ± .004^a,b g dry wt/cm	34.0 ± 3.6^b mg/g bw	1.40 ± 2.9^b units/cm colon	2.92 ± 1.3^b mg/g bw	significantly lower than the PG/PS treated animals and comparable to the sham control	significantly lower than the PG/PS treated animals and comparable to the sham control	tended to reduce	significantly attenuated	inhibition of leukocyte infiltration and fibrosis
